Measurements reported in patent EP0392745B1, “Immunoconjugates and prodrugs and their use in association for drug delivery” (CELLTECH LIMITED, priority 1989, dated 1990).
Read-outs that look alike come from different tables or passages of the source.

How the values were obtained:
[1] = system: Mouse lymphoma cells, line L5178Y clone 3.7.2.C; test: Cell tissue culture cytotoxicity assay of relative drug/prodrug toxicity; format: cell-based
Protocol: A tissue culture assay using a mouse lymphoma cell line [Phillips (1974), Biochem. Pharmacol. 23, 131-138] was used to determine the relative toxicity of drug and prodrug samples. The cepholosporin - prodrugs tested were those of Example 2,5,6 - 10 and 12.
For compounds of Examples 2, and 7-10 the corresponding non-cephalosporin linked drug was tested. In the case of compounds of Examples 5, 6 and 12 the drug portion of the prodrug was generated in situ in the assay by the addition of the enzyme β-lactamase as indicated below.
Mouse lymphoma cells, line L5178Y clone 3.7.2.C, was used for these studies. This clone was derived from the L5178Y wild-type line and is heterozygous for the thymidine kinase locus. It is widely used for assays of mutation to thymidine analogue resistance (loss of thymidine kinase). Stocks were maintained frozen in liquid nitrogen and recovered 7 days before the start of the study.
The cells were grown in RPMI 1640 medium buffered with 25 mM HEPES, and supplemented with 10% horse serum, 1mM sodium pyruvate, and 0.05% Pluriol (PF 6800 from BASF). In most cases, penicillin (100 iu/ml) and streptomycin (100µg/ml) were also included in the medium. Stock cultures were maintained by subculture into fresh medium every 2-3 days. Incubation was at 37 °C in an atmosphere of 5% CO₂ in air. Under these conditions, the cells grew as a static cell suspension with a population doubling time (cell cycle time) of 10-12 hr.
A growing culture, at a cell density of 1-2 x 10⁶/ml, was diluted with fresh medium to a density of 5 x 10⁵ cells/ml. An appropriate number of universal bottles was prepared with 4.5ml medium and O.5ml cell suspension to give a final cell concentration of 5 x 10⁴ cells/ml. In some tests, the cells were centrifuged and resuspended in Hank's Balanced Salt Solution (HBSS) to allow treatment in a simpler medium. […]
Cell growth was expressed as the number of population doublings (PD) achieved during a given time period ( t hrs ), calculated as follows: [drawing 5]
Growth relative to control ( % G ) was calculated for each treatment as follows: [drawing 6] […]

[2] = system: O=C(Cc1cccs1)N[C@@H]1C(=O)N2C(C(=O)O)=C(CSc3ncnc4[nH]cnc34)CS[C@H]12; test: purified protein, by the assay type; details: 37.0 °C

Nc1nc2nc[nH]c2c(=S)[nH]1 [Thioguanine (drug), Thioguanine, reference compound]
IC50 ([1]; Mus musculus, L5178Y, read-out: ID50): 0.53 µM

β-lactamase (E.coli RTEM) (Escherichia coli)
Km [2]: 138 µM

Nc1nc(SCC2=C(C(=O)O)N3C(=O)[C@@H](NC(=O)Cc4cccs4)[C@H]3SC2)c2[nH]cnc2n1 [Example 9, 3-(Guanin-6-ylthiomethyl)-7β-(2-acetamido)-3-cephem-4-carboxylic acid]
Differential Toxicity (ID50 Prodrug/drug) ([1]; mouse lymphoma L5178Y cells): 13 | IC50 ([1]; mouse lymphoma L5178Y cells, growth relative to control, read-out: ID50 (the source's name)): 6.44 µM
